Assay results: ChEMBL document CHEMBL1201862, “PubChem BioAssay data set” (2004)
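Exposure lasted 48 hours, with cells grown in 96-well plates and compounds tested at five concentrations. Abbreviation: GI50, concentration required for 50% inhibition of growth.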 Activity calls are given as the source filed them. Rule as the data show it: active = GI50 up to about 1.1 µM and inactive = higher.

Assays:
Assay in all cases: NCI-60 cell line screen, 48 h
UACC-62 = test system: UACC-62
NCI-H23 = test system: NCI-H23
SK-OV-3 = test system: SK-OV-3
MDA-MB-231 = test system: MDA-MB-231
HOP-92 = test system: HOP-92
SNB-75 = test system: SNB-75
MDA-N = test system: MDA-N
BT-549 = test system: BT-549
NCI-H460 = test system: NCI-H460
HOP-62 = test system: HOP-62
HT-29 = test system: HT-29
LOX IMVI = test system: LOX IMVI
RPMI-8226 = test system: RPMI-8226
DU-145 = test system: DU-145
SR = test system: SR
HL-60 = test system: HL-60
UACC-257 = test system: UACC-257
MCF7 = test system: MCF7
MOLT-4 = test system: MOLT-4

| SMILES | GI50 (UACC-62) | GI50 (NCI-H23) | GI50 (SK-OV-3) | GI50 (MDA-MB-231) | GI50 (HOP-92) | GI50 (SNB-75) | GI50 (MDA-N) | GI50 (BT-549) | GI50 (NCI-H460) | GI50 (HOP-62) | GI50 (HT-29) | GI50 (LOX IMVI) | GI50 (RPMI-8226) | GI50 (DU-145) | GI50 (SR) | GI50 (HL-60) | GI50 (UACC-257) | GI50 (MCF7) | GI50 (MOLT-4) |
| --- | --- | --- | --- | --- | --- | --- | --- | --- | --- | --- | --- | --- | --- | --- | --- | --- | --- | --- | --- |
| CC1=CC=CC(C)(C)CC1(O[Si](C)(C)C)C(F)(F)F (stereo not given) | > 100 µM (inactive) | > 100 µM (inactive) | > 100 µM (inactive) | > 100 µM (inactive) | > 100 µM (inactive) | > 100 µM (inactive) | > 100 µM (inactive) | > 100 µM (inactive) | > 100 µM (inactive) | > 100 µM (inactive) | 46.8 µM (inactive) | > 100 µM (inactive) | > 100 µM (inactive) | > 100 µM (inactive) | > 100 µM (inactive) | 28.9 µM (inactive) | > 100 µM (inactive) | 92.7 µM (inactive) |  |
| Nc1ccc2nc3ccc(N)cc3[n+](-c3ccccc3)c2c1 | 64.7 µM (inactive) | 22.8 µM (inactive) | > 100 µM (inactive) | 63.8 µM (inactive) | 67 µM (inactive) | 42.1 µM (inactive) | 49.8 µM (inactive) | 92.7 µM (inactive) | 32.8 µM (inactive) | 43.3 µM (inactive) | 21.2 µM (inactive) | 15.7 µM (inactive) | > 100 µM (inactive) | 68.2 µM (inactive) | 98.6 µM (inactive) | > 100 µM (inactive) | 9.27 µM (inactive) | 5.07 µM (inactive) |  |
| O=c1ccn(C2OC(CO)C(P(=O)(O)O)C2O)c(=O)[nH]1 (stereo not given) | > 100 µM (inactive) | > 100 µM (inactive) |  | > 100 µM (inactive) | > 100 µM (inactive) | > 100 µM (inactive) | > 100 µM (inactive) | > 100 µM (inactive) | > 100 µM (inactive) | > 100 µM (inactive) | > 100 µM (inactive) | > 100 µM (inactive) | > 100 µM (inactive) | > 100 µM (inactive) | > 100 µM (inactive) | > 100 µM (inactive) | > 100 µM (inactive) | > 100 µM (inactive) | > 100 µM (inactive) |
| COC(=O)c1c(O)ccc2c1c1c(n2Cc2cc(OC)cc(OC)c2)C(=O)c2ccccc2C1=O |  | 8.28 µM (inactive) | 6.52 µM (inactive) | 7.13 µM (inactive) | 4.92 µM (inactive) | 14.1 µM (inactive) | 3.85 µM (inactive) | 6.71 µM (inactive) | 3.75 µM (inactive) | 9.29 µM (inactive) | 2.44 µM (inactive) | 8.67 µM (inactive) | 2.99 µM (inactive) | 21 µM (inactive) | 2.44 µM (inactive) | 7.5 µM (inactive) | 23.9 µM (inactive) | 4.63 µM (inactive) | 4.42 µM (inactive) |
| N#CC1C=Cc2ccccc2N1C(=O)Oc1ccccc1 (stereo not given) | 52.7 µM (inactive) | 58.9 µM (inactive) |  | 68.2 µM (inactive) | 58.6 µM (inactive) | 93.5 µM (inactive) | 35.4 µM (inactive) | 53.5 µM (inactive) | 41.4 µM (inactive) |  | 44.3 µM (inactive) | 39.9 µM (inactive) | 21.3 µM (inactive) | 31.9 µM (inactive) | 33.8 µM (inactive) | 19.3 µM (inactive) | 76.9 µM (inactive) | 41.8 µM (inactive) | 28.2 µM (inactive) |
| O=C(O)CN(CC(=O)O)Cc1ccn(-c2cccc(-n3ccc(CN(CC(=O)O)CC(=O)O)n3)n2)n1 | > 100 µM (inactive) | < 0.01 µM (active) | > 100 µM (inactive) | > 100 µM (inactive) | > 100 µM (inactive) | > 100 µM (inactive) | > 100 µM (inactive) | > 100 µM (inactive) | > 100 µM (inactive) | > 100 µM (inactive) | > 100 µM (inactive) |  | > 100 µM (inactive) | > 100 µM (inactive) | > 100 µM (inactive) | < 0.01 µM (active) | > 100 µM (inactive) | > 100 µM (inactive) | > 100 µM (inactive) |
| COc1cc2cc(C(=O)N3CC(CCl)c4c3cc(NC(=O)C(C)(C)c3ccccc3[N+](=O)[O-])c3ccccc43)[nH]c2c(OC)c1OC (stereo not given) | 3.32 µM (inactive) | 0.524 µM (active) | 2.75 µM (inactive) | 3.03 µM (inactive) | 2.38 µM (inactive) | 3.76 µM (inactive) | 5.12 µM (inactive) | 8.87 µM (inactive) | 0.158 µM (active) | 0.187 µM (active) | 1.6 µM (inactive) | 0.993 µM (active) | 173 µM (inactive) | 0.147 µM (active) | 0.192 µM (active) | 1.36 µM (inactive) | 6.65 µM (inactive) | 0.142 µM (active) | 1.71 µM (inactive) |
| COc1cc(C(=O)OC2CC34CCNC35CC(OC5(OC)C2O)c2cc3c(cc24)OCO3)ccc1O (stereo not given) | > 100 µM (inactive) | > 100 µM (inactive) | > 100 µM (inactive) | > 100 µM (inactive) | > 100 µM (inactive) | 46.8 µM (inactive) | > 100 µM (inactive) | > 100 µM (inactive) | > 100 µM (inactive) | > 100 µM (inactive) | > 100 µM (inactive) | > 100 µM (inactive) | > 100 µM (inactive) | > 100 µM (inactive) | > 100 µM (inactive) | > 100 µM (inactive) | > 100 µM (inactive) | > 100 µM (inactive) | > 100 µM (inactive) |
| O=C1/C(=C/c2ccc([N+](=O)[O-])cc2)CCCc2ccccc21 | 91 µM (inactive) | > 100 µM (inactive) | > 100 µM (inactive) | > 100 µM (inactive) | > 100 µM (inactive) | 83.4 µM (inactive) | > 100 µM (inactive) | > 100 µM (inactive) | > 100 µM (inactive) | 54.3 µM (inactive) | > 100 µM (inactive) | > 100 µM (inactive) | > 100 µM (inactive) | > 100 µM (inactive) | > 100 µM (inactive) | > 100 µM (inactive) | > 100 µM (inactive) | > 100 µM (inactive) | > 100 µM (inactive) |
| CSc1ccc2c(c1)c(CCN)c(C)n2Cc1ccccc1Cl | 1.65 µM (inactive) | 1.93 µM (inactive) | 2 µM (inactive) | 1.84 µM (inactive) | 1.26 µM (inactive) | 1.61 µM (inactive) | 1.64 µM (inactive) | 3.26 µM (inactive) | 1.55 µM (inactive) | 1.18 µM (inactive) | 1.6 µM (inactive) | 1.83 µM (inactive) | 1.42 µM (inactive) | 1.66 µM (inactive) | 2.42 µM (inactive) | 1.56 µM (inactive) | 1.73 µM (inactive) | 1.85 µM (inactive) |  |
| COc1cc2c[n+](C)c3c(c2cc1OC)Cc1cc2c(cc1-3)OCO2 | > 100 µM (inactive) | > 100 µM (inactive) | > 100 µM (inactive) | > 100 µM (inactive) | > 100 µM (inactive) | > 100 µM (inactive) | > 100 µM (inactive) | 90.2 µM (inactive) |  | > 100 µM (inactive) | > 100 µM (inactive) | > 100 µM (inactive) | 65 µM (inactive) | > 100 µM (inactive) | 29.1 µM (inactive) | > 100 µM (inactive) | > 100 µM (inactive) | > 100 µM (inactive) | 48.9 µM (inactive) |
